Test results reported in patent US20240374692A1, “A NOVEL ACYLATED INSULIN ANALOG” (SUNSHINE LAKE PHARMA CO., LTD., priority 2021, published 2024).

What was measured:
[1] = rat, in vivo, iv, 10 nmol/kg
insulin receptor B = biological target: T1, insulin receptor B (Homo sapiens, UniProt P06213); test: Insulin receptor B autophosphorylation in transfected cells (Cisbio Phospho-IR beta Tyr1150/1151 kit); type: cell-based; settings: for Relative HI activity: relative to human insulin
T1 construct: expressed in transfected cells
Protocol: The phosphorylation level of insulin receptor B was detected by Cisbio's Phospho-IR beta (Tyr1150/1151) kit method to evaluate the biological activity of insulin. The cells were seeded into a 96-well plate overnight, and after the serum in the medium was removed, 40 μl of serum-free medium was added to culture for about 4 h. Then a dilution series of insulin derivatives were prepared with blank solution (0.6% casein, 0.06 mg/mL EDTA, 1×DPBS) and incubated with cells in the 96-well plate for 5 min in a CO2 incubator (37° C., 5% CO2). The liquid in the 96-well plate was poured off, 100 µL of a mixture of lysis buffer (2% Triton X-100, 150 mM NaCl, 50 mM HEPES, pH=7) and inhibitor (Blocking Reagent in the kit) was added to lyse the cells, then the plate was shaken at 350 rpm for 30 min. Relative activity (in percent (%)) was assessed by measuring insulin receptor phosphorylation levels in the supernatant after cell lysis and fitting a curve to the data using nonlinear regression in Graphpad Prism 5 software. Related assays were also used, in which the blank solution also contained 1.5% HSA to simulate physiological conditions. Changes in the phosphorylation levels of the insulin-activated insulin receptors of the invention were detected as an indirect reflection of the albumin binding activity.

[2] = system: STZ-induced type I diabetes mellitus (T1DM) C57BL/6 mice; test: Hypoglycemic effect, repeated administration (four times) to STZ-induced T1DM C57BL/6 mice (Example 5); type: in vivo; parameters: key to random blood glucose: random blood glucose in mmol/L, Mean±SEM
Protocol: SPF grade C57BL/6 mice were reared in a suitable rearing box in a barrier environment, with a rearing temperature of 20-26° C., a humidity of 40-70%, a time between day and night of 12 h/12 h, and the mice had free access to standard food and autoclaved sterilization water. After a 3-day quarantine period and a 2-day acclimation period, the mice were fasted for 12 h, and the mice were injected intraperitoneally with streptozotocin solution (STZ, 13 mg/mL, in citrate buffer) or citrate buffer at 130 mg/kg (control group). 3 Days and 7 days after administration of streptozotocin, random blood glucose and fasting blood glucose were detected, and the random blood glucose value above 25 mmol/L and fasting blood glucose value above 11.1 mmol/L were selected as T1DM model mice for follow-up experiments. On the day before administration, random blood glucose was monitored and mice were weighed. Mice were divided into 4 groups according to random blood glucose and body weight.
Subcutaneous administration (S.C.) was used to administer the corresponding vehicle or drug, once every 4-5 days, for a total of 4 administrations. During the experiment, the animals were allowed to eat and drink water freely. The random blood glucose before the first administration, and 0.25, 0.5, 1, 2, 4, 6, 8, 10, 24, 48, 72, and 96 h after administration were assessed, as well as the random blood glucose before the second, third and fourth administration, and 1, 2, 4, 6, 8, 24, 48, 72, 96 and 120 h after administration.
(§1) All raw data were entered into Excel files and expressed as Mean±SEM. Statistical analysis of data was performed using Graphpad Prism 7.0 software, one-way or two-way ANOVA comparison method, and P<0.05 was used as the criterion for significant differences.

normal C57BL/6 mice = test: Hypoglycemic effect, single subcutaneous administration to normal C57BL/6 mice; type: in vivo; parameters: blood glucose: unit not given here; settings: for blood glucose: Mean ± SEM, n = 6
Protocol: SPF grade C57BL/6 mice were reared in a suitable rearing box in a barrier environment, with a rearing temperature of 20-26° C., a humidity of 40-70%, a time between day and night of 12 h/12 h, and the mice had free access to standard food and autoclaved sterilization water. After a 3-day quarantine period and a 2-day acclimation period, random blood glucose was measured and mice were weighed. Mice were divided into 6 groups according to random blood glucose and body weight.
Single subcutaneous administration (S.C.) was used to administer the corresponding vehicle or drug. The control group was administered the vehicle PBS without fasting during the whole process, and the animals were allowed to eat and drink freely. Random blood glucose values of C57 mice were measured before administration and at 0.25, 0.5, 1, 2, 4, 6, 8, 10, 24, 48, 54, 72 and 96 hours after administration.
as §1

[3] = single S.C., Degludec 200 nmol/Kg, others 1400 nmol/Kg

T1 sequence (P06213 28-758 limits assumed): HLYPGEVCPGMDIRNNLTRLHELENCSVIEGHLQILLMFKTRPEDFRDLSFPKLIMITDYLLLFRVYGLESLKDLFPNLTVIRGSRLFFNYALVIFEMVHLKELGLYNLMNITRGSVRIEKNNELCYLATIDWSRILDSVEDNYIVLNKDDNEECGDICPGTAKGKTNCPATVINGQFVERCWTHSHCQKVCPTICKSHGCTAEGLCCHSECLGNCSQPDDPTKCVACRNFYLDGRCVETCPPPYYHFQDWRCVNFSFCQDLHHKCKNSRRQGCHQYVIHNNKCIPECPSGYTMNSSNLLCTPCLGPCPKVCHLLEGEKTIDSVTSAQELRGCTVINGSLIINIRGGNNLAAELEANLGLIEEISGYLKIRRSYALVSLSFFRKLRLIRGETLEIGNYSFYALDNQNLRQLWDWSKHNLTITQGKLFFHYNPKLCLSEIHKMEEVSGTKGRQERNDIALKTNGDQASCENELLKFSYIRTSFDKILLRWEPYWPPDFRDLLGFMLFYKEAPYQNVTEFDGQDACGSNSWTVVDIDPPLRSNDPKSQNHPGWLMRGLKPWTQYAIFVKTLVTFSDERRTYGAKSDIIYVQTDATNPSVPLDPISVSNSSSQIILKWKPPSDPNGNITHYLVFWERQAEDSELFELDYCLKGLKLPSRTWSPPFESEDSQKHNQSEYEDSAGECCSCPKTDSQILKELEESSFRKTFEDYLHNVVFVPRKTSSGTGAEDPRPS
T1 sequence (P06213 763-1382 partner limits assumed): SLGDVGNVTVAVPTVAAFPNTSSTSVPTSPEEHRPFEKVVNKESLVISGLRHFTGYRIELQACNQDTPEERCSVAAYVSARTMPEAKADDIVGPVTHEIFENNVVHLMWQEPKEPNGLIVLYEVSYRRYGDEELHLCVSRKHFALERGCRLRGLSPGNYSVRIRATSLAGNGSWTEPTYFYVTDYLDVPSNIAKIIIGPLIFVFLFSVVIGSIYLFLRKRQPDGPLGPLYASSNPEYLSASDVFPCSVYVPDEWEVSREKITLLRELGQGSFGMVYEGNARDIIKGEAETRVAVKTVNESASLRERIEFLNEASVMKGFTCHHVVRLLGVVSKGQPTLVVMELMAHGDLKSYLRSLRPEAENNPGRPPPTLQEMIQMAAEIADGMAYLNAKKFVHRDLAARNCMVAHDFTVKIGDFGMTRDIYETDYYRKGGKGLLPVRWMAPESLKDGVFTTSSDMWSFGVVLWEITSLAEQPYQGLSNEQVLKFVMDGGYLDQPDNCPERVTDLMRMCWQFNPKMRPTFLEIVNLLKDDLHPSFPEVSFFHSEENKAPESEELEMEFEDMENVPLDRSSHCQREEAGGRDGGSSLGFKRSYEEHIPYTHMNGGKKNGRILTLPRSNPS

A14E, B16E, B25H, B29K(N(ε)-COOH(CH2)18CO-L-Lys-CO(CH2)2CO—(OEG)2), desB30 human insulin analog [Insulin-a3]
AUClast [1]: 9170 ng·h/mL
T1/2 [1]: 11.2 ± 1.9 h
EC50 (insulin receptor B; 0% HSA): 213 nM
Relative HI activity (insulin receptor B; 0% HSA): 0.58%
EC50 (insulin receptor B; 1.5% HSA): 4490 nM
Relative 0% HSA activity (insulin receptor B; 1.5% HSA relative to 0% HSA): 5.86%
Relative HI activity (insulin receptor B; 1.5% HSA): 0.06%
glucose control effect and effective glucose control time compared with Insulin-a1 ([2]; 1400 nmol/Kg S.C. four times): significantly better
time after administration at which blood glucose reached the lowest level ([2]; 1400 nmol/Kg S.C., Insulin-a1 each administration, Insulin-a3 first and second administrations): 24 h
time after administration at which blood glucose reached the normal level ([2]; 1400 nmol/Kg S.C., after the first and second administrations): 96 h
time after administration at which blood glucose reached the normal level ([2]; 1400 nmol/Kg S.C., after the third and fourth administrations): 120 h
random blood glucose ([2]; Day 0 (1st administration), 1400 nmol/Kg S.C. four times): 31.3 ± 3.1
random blood glucose ([2]; Day 1, 1400 nmol/Kg S.C. four times): 17.4 ± 6.7
random blood glucose ([2]; Day 4 (2nd administration), 1400 nmol/Kg S.C. four times): 26.9 ± 8.0
random blood glucose ([2]; Day 5, 1400 nmol/Kg S.C. four times): 7.1 ± 3.8
random blood glucose ([2]; Day 9 (3rd administration), 1400 nmol/Kg S.C. four times): 26.2 ± 7.9
random blood glucose ([2]; Day 10, 1400 nmol/Kg S.C. four times): 8.6 ± 5.7
random blood glucose ([2]; Day 14 (4th administration), 1400 nmol/Kg S.C. four times): 24.4 ± 5.7
random blood glucose ([2]; Day 18, 1400 nmol/Kg S.C. four times): 19.7 ± 6.4
time the effective glucose control effect can be maintained ([2]; repeated administration, C57BL6 mice modeled by STZ): 4-5 days/time
blood glucose (normal C57BL/6 mice; 0 h (before administration), single S.C., Degludec 200 nmol/Kg, others 1400 nmol/Kg): 8.0 ± 1.0
blood glucose (normal C57BL/6 mice; 0.25 h after single S.C., Degludec 200 nmol/Kg, others 1400 nmol/Kg): 8.6 ± 1.0
blood glucose (normal C57BL/6 mice; 0.5 h after single S.C., Degludec 200 nmol/Kg, others 1400 nmol/Kg): 6.2 ± 0.4
blood glucose compared with the control group (normal C57BL/6 mice; 1 h after single S.C. administration): decreased significantly
blood glucose (normal C57BL/6 mice; 1 h after single S.C., Degludec 200 nmol/Kg, others 1400 nmol/Kg): 4.9 ± 0.8
blood glucose (normal C57BL/6 mice; 2 h after single S.C., Degludec 200 nmol/Kg, others 1400 nmol/Kg): 4.5 ± 1.0
blood glucose (normal C57BL/6 mice; 4 h after single S.C., Degludec 200 nmol/Kg, others 1400 nmol/Kg): 3.9 ± 0.7
blood glucose (normal C57BL/6 mice; 6 h after single S.C., Degludec 200 nmol/Kg, others 1400 nmol/Kg): 3.7 ± 0.5
blood glucose (normal C57BL/6 mice; 8 h after single S.C., Degludec 200 nmol/Kg, others 1400 nmol/Kg): 3.8 ± 0.5
blood glucose (normal C57BL/6 mice; 10 h after single S.C., Degludec 200 nmol/Kg, others 1400 nmol/Kg): 3.5 ± 0.7
blood glucose (normal C57BL/6 mice; 24 h after single S.C., Degludec 200 nmol/Kg, others 1400 nmol/Kg): 2.9 ± 1.0
blood glucose (normal C57BL/6 mice; 48 h after single S.C., Degludec 200 nmol/Kg, others 1400 nmol/Kg): 4.2 ± 2.0
blood glucose (normal C57BL/6 mice; 72 h after single S.C., Degludec 200 nmol/Kg, others 1400 nmol/Kg): 5.4 ± 2.6
blood glucose (normal C57BL/6 mice; 96 h after single S.C., Degludec 200 nmol/Kg, others 1400 nmol/Kg): 8.8 ± 1.1
effect on blood glucose control compared with Icodec (normal C57BL/6 mice; single S.C. 1400 nmol/Kg): slightly worse
effective blood glucose control time (normal C57BL/6 mice; [3]): 96 h
time after administration at which blood glucose reached the lowest level (normal C57BL/6 mice; [3]): 24 h
